In BigSolDB 2.1:

CC1(C)C[C@@H]1C(N)=O
Conditions | solubility (mole fraction)
in chloroform, 286.26 K | 0.0357
in chloroform, 293.65 K | 0.0395
in chloroform, 296.64 K | 0.0429
in chloroform, 300.25 K | 0.0484
in chloroform, 303.47 K | 0.0529
in chloroform, 308.04 K | 0.0596
in chloroform, 310.96 K | 0.0665
in chloroform, 314.18 K | 0.0699
in chloroform, 317.45 K | 0.0789
in chloroform, 321.27 K | 0.0902
in dichloromethane, 288.72 K | 0.0152
in dichloromethane, 292.45 K | 0.0177
in dichloromethane, 296.11 K | 0.0205
in dichloromethane, 298.74 K | 0.0233
in dichloromethane, 300.83 K | 0.0248
in dichloromethane, 302.2 K | 0.0268
in dichloromethane, 304.6 K | 0.0301
in dichloromethane, 306.27 K | 0.0321
in dichloromethane, 309.29 K | 0.0367
in ethanol, 290.04 K | 0.089
in ethanol, 293.28 K | 0.0945
in ethanol, 296.81 K | 0.101
in ethanol, 299.25 K | 0.107
in ethanol, 302.71 K | 0.116
in ethanol, 306.04 K | 0.123
in ethanol, 309.67 K | 0.134
in ethanol, 313.53 K | 0.148
in ethanol, 318.09 K | 0.163
in ethyl acetate, 288.96 K | 0.0169
in ethyl acetate, 290 K | 0.0205
in ethyl acetate, 294.53 K | 0.0279
in ethyl acetate, 301.16 K | 0.0357
in ethyl acetate, 305.88 K | 0.0409
in ethyl acetate, 311 K | 0.0483
in ethyl acetate, 316.3 K | 0.0557
in ethyl acetate, 323.65 K | 0.0787
in ethyl acetate, 328.41 K | 0.0912
in toluene, 288.7 K | 0.00221
in toluene, 302.9 K | 0.004
in toluene, 311.23 K | 0.00599
in toluene, 318.11 K | 0.00858
in toluene, 324.07 K | 0.011
in toluene, 328.47 K | 0.0137
in toluene, 332.43 K | 0.016
in toluene, 338.07 K | 0.0219
in toluene, 342.25 K | 0.0259
in toluene, 348.06 K | 0.035
in water, 294.8 K | 0.00374
in water, 308.15 K | 0.00499
in water, 314.67 K | 0.00583
in water, 327.39 K | 0.00716
in water, 331.7 K | 0.00917
in water, 336.08 K | 0.0115
in water, 340.86 K | 0.0146
in water, 345.84 K | 0.0177
in water, 353.93 K | 0.026
